This is an account of results in article PMC6829886, “Inhibition of Non-Small Cell Lung Cancer Cells by Oxy210, an Oxysterol-Derivative that Antagonizes TGFβ and Hedgehog Signaling” (Cells, 2019).

The structures appear in SMILES notation.

The subject of assay [1] is A549 cells. The experiment in a line: TGFβ-induced EMT in A549 cells (morphology, Q-RT-PCR). Format: cell-based, human. As for the experimental part: Total RNA was extracted with the RNeasy Plus Mini Kit from Qiagen (Hilden, Germany) according to the manufacturer’s instructions. One microgram of RNA was reverse-transcribed using an iScript Reverse Transcription Supermix from Bio-Rad Laboratories (Hercules, CA, USA) to make single-stranded cDNA. The cDNAs were then mixed with Qi SYBR Green Supermix (Bio-Rad) for quantitative RT-PCR assay using a Bio-Rad I-cycler IQ quantitative thermocycler. All PCR samples were prepared in triplicate wells in a 96-well plate. After 40 cycles of PCR, melt curves were examined in order to ensure primer specificity. Fold changes in gene expression were calculated using the ΔΔCt method. Primers used for mouse were as follows: Oaz1 (5′-CCACTGCTTCGCCAGAGAG-3′) and (5′-CCCGGACCCAGGTTACTA-3′), Gli1 (5′- […]-3′ and 5′- GCT GATCCAGCCTAAGGTTCTC-3′), Ptch1 (5′-CCATCGGCGACAAGAACC-3′ and 5′-[…]-3′), Thbs1 (5′-[…]-3′ and 5′-CGGGGATCAGGTTGGCATT-3′), Cryab (5′-[…]-3′ and 5′-[…]-3′), Egr2 (5′-[…]-3′ and 5′-[…]-3′), CTGF (5′-GGGCCTCTTCTGCGATTTC-3′ and 5′-[…]-3′).
Primers used for human were as follows: GAPDH (5′- […]-3′ and 5′- […]-3′), SHH (5′- CGGAGCGAGGAAGGGAAAG-3′) and (5′- […]-3′), GLI1 (5′- GAAGCCGAGCCGAGTATC-3′ and 5′-[…]-3′), GLI2 (5′-[…]-3′ and 5′-[…]-3′), Fn-EDA (5′- […]-3′ and 5′- […]-3′), E-Cadherin (5′- […]-3′ and 5′- TCCCAGGCGTAGACCAAGA-3′), SNAIL (5′- […]-3′ and 5′- […]-3′), N-Cadherin (5′- […]-3′ and 5′- […]-3′), Vimentin (5′- […]-3′ and 5′- […]-3′), ZO-1 (5′- […]-3′ and 5′- […]-3′), MMP2 (5′- […]-3′ and 5′- […]-3′), MMP9 (5′-[…]-3′ and 5′-[…]).
Figure 8 Inhibition of TGFβ-induced EMT in NSCLC cells. (a) A549 cells were treated with TGFβ in the absence or presence of Oxy210 in RPMI 1640 containing 2% FBS for 5 days. The cells were washed with PBS and then fixed with 2% formaldehyde in PBS at room temperature for 15 min. Formaldehyde was then removed, cells washed with PBS and stained with 4% Trypan Blue for 5 min. Phase contrast images were obtained using a 20X objective lens. A549 (b,c) and H2030 (d) cells were treated in RPMI 1640 containing 0.1% FBS overnight and then pretreated for 2 h with Oxy210 in RPMI 1640 containing 0.1% FBS. Next, cells were treated with TGFβ in the absence or presence of Oxy210. After 48 h, RNA was extracted and analyzed by Q-RT-PCR for the expression of the genes as indicated and normalized to GAPDH expression. Data from a representative experiment are reported as the mean of triplicate determinations ± SD (** p < 0.01 vs. TGFβ treated cells; ## p < 0.01 vs. control).

The test system of assay [2] is A549 cells. The experiment in a line: TGFβ-induced drug resistance (carboplatin) assay, cell counting. In kind it is cell-based, human. To be noted: TGFβ1 ± Oxy210 (5 μM) 3 days, then 20 μM CP 4 days. As for the experimental part: A549 and H2030 cells cultured in RPMI 1640 containing 5% FBS in 12 well-plates at 20% confluence were treated with Oxy210 for 6 days and then trypsinized, spun down and resuspended in fresh medium. For the Carboplatin (CP) and Oxy210 co-treatment experiments, A549 cells cultured in RPMI 1640 containing 2% FBS in 12 well-plates at 20% confluence were treated with CP at different concentrations in the presence or absence of Oxy210 for 6 days. For the TGFβ-induced drug resistance assay, A549 cells cultured in RPMI 1640 containing 2% FBS in 12 well-plates at 10% confluence were pre-treated with TGFβ1 alone or together with Oxy210 for 3 days, and then treated with 20 μM CP for 4 days. An aliquot of cell suspension was applied to a hemocytometer and the cells were then counted under a light microscope.
Figure 10 Effect of Oxy210 on TGFβ-induced resistance to carboplatin. A549 cells were treated with the agents as indicated (in front of --) in RPMI 1640 containing 2% FBS for 3 days, and then treated with the agents as indicated (after --) for 4 days. The cells were then trypsinized and counted. Data from a representative experiment are reported as the mean of triplicate determinations ± SD (## p < 0.01 vs. Control--Control; ++ p < 0.01 vs. Control--CP; ** p < 0.01 vs. TGFβ--CP).

Assay [3] concerns EGF or Il-1β target gene expression (fibronectin, IL-6) in NIH3T3-E1 or A549 cells. The experiment in a line: Target gene expression after stimulation with EGF or Il-1β (pathway specificity). In kind it is cell-based. The source says: We content that the biological properties of Oxy210 described here are specific inhibitory effects, by and large limited to Hh and TGF β signaling, rather than the result of nonspecific binding events and/or a pan inhibition of cellular signaling.

With `C[C@]12CC[C@H]3[C@@H](CC=C4C[C@@H](O)CC[C@@]43C)[C@@H]1CC[C@@H]2[C@](C)(O)CCc1cccnc1` [Oxy210, (3S,8S,9S,10R,13S,14S,17S)-17-((R)-2-hydroxy-4-(pyridin-3-yl)butan-2-yl)-10,13-dimethyl-2,3,4,7,8,9,10,11,12,13,14,15,16,17-tetradecahydro-1H-cyclopenta[a]phenanthren-3-ol], the “TGFβ-induced EMT morphology changes” value in the assay with A549 cells [1] is “reversed”. Moreover, in the assay on A549 cells [1] (48 h), the “expression of E-Cad downregulated by TGFβ” value is “partially rescued”; the “expression of mesenchymal genes upregulated by TGFβ (SNAIL, ZO-1, Fn-EDA, N-Cad)” value was “inhibited the expression of mesenchymal genes”; the “mRNA expression of MMP2 and MMP9 induced by TGFβ” value was “inhibited the mRNA expression”. For the same compound, the “sensitivity to CP after TGFβ1 pre-treatment (TGFβ-induced CP resistance)” value with A549 cells [2] is on record as “fully restored CP drug sensitivity”. Moreover, the “inhibition of EGF or Il-1β target gene expression (fibronectin, IL-6)” value in assay [3] is “did not result in significant inhibition”.
